As a reminder, the IC50 is the concentration needed to halve the response being measured.

Here are results for 28 compounds from patent publication US10668067B2, “Pyridine sulfonamides” (AMGEN INC., priority 2016, dated 2020).

The assay deals with human Nav1.7 (Homo sapiens (Human), UniProt Q15858). As to the kind of experiment: Nav 1.7 In Vitro PX Assay (PatchXpress whole cell voltage clamp). Format: cell-based. The note with it: in-vitro Nav 1.7 PX data. The method, then: HEK 293 cells stably transfected with human Nav1.7 were recorded in whole cell voltage clamp mode with the PatchXpress automated electrophysiology system (Molecular Devices, LLC, Sunnyvale, Calif.). Compound effects were measured on a partially inactivated state of the sodium channel. Cells were clamped to a holding potential yielding 20 to 50% inactivation. To elicit sodium current, channels were activated by pulsing to −10 mV for 20 msec. This voltage protocol was repeated at a rate of 0.1 Hz throughout the experiment. A single concentration of test compound was applied to cells for a duration of 3 minutes. Peak sodium current was measured at the end of the compound addition period to determine percent inhibition. Three to five cells were tested per concentration, and IC50 curves were fitted to percent inhibition as a function of concentration.
Sequence of human Nav1.7 (Q15858 whole entry): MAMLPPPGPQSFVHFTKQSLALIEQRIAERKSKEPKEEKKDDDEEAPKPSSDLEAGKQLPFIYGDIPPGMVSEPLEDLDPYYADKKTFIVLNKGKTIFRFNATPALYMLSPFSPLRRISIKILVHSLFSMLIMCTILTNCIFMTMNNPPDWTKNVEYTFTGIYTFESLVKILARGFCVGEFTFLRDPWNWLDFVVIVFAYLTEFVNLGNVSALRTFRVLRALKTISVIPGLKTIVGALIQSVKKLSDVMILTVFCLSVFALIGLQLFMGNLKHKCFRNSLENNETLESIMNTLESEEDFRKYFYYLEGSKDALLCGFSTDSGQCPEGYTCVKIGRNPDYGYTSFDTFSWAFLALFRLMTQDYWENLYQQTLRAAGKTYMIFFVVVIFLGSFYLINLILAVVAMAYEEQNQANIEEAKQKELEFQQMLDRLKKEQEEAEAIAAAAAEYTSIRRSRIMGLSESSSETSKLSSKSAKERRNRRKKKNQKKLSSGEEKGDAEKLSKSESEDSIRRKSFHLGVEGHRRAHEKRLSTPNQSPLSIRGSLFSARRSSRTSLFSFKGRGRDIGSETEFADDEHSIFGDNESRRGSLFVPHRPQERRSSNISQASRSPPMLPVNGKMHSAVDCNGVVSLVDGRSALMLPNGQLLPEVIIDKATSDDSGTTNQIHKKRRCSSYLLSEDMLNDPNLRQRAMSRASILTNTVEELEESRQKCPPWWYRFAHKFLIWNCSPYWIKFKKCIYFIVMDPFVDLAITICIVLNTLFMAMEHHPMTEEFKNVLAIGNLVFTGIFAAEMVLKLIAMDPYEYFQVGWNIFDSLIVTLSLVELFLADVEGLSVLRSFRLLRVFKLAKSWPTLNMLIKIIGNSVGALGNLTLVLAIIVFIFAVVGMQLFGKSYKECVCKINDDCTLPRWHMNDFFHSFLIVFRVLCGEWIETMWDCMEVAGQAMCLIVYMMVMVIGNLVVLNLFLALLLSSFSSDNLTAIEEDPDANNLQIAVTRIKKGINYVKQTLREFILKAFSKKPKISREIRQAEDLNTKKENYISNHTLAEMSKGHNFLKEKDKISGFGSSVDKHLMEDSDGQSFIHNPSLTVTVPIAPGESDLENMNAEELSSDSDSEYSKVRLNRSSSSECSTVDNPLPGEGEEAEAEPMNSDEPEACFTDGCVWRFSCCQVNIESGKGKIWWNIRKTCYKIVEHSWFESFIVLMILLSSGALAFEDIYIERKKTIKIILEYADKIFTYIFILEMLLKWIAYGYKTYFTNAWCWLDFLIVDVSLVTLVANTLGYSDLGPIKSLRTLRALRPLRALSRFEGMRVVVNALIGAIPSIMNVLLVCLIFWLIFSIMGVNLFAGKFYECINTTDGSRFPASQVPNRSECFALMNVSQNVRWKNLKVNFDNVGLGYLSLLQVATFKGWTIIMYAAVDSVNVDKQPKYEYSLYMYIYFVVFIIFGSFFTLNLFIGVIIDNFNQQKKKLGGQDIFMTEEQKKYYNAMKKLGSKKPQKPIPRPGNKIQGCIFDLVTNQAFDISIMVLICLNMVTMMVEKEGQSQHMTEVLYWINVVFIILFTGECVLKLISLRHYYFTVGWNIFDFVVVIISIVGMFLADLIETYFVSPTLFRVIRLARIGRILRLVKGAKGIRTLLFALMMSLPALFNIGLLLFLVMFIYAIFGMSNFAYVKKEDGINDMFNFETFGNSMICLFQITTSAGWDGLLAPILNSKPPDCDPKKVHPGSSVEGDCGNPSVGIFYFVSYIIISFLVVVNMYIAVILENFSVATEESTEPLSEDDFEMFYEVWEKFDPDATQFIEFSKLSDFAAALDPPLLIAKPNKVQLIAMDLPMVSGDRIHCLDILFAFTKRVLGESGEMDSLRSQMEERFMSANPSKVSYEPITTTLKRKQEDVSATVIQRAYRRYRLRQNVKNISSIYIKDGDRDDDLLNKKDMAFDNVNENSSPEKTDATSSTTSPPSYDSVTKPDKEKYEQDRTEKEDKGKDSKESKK
Regarding `CNC(=O)N(c1ccc(S(=O)(=O)Nc2nocc2C)cn1)c1cc(F)c(-c2ccc(F)c(OC(F)(F)F)c2)cc1OC` [Example 2-12, 6-(1-(2,4′-difluoro-5-methoxy-3′-(trifluoromethoxy)-[1,1′-biphenyl]-4-yl)-3-methylureido)-N-(4-methylisoxazol-3-yl)pyridine-3-sulfonamide], the 50% inhibitory concentration (IC50) was 0.0635 µM.

The compound `CNC(=O)N(c1ccc(S(=O)(=O)Nc2cccnn2)cn1)c1cc(F)c(-c2cccc(C(F)(F)F)c2)cc1OC` [Example 1-3, 6-((2-fluoro-5-methoxy-3′-(trifluoromethyl)-4-biphenylyl)(methylcarbamoyl)amino)-N-3-pyridazinyl-3-pyridinesulfonamide] had a half-maximal inhibitory concentration (IC50) of 0.04 µM.

As to `CNC(=O)N(c1ccc(S(=O)(=O)Nc2ccnc(C)n2)cn1)c1cc(Cl)c(-c2ccc(F)c(OCC(F)(F)F)c2)cc1OC` [Example 3-5, 6-((2-chloro-4′-fluoro-5-methoxy-3′-(2,2,2-trifluoroethoxy)-4-biphenylyl)(methylcarbamoyl)amino)-N-(2-methyl-4-pyrimidinyl)-3-pyridinesulfonamide], the half-maximal inhibitory concentration (IC50) was found to be 0.076 µM.

Turning to `CNC(=O)N(c1ccc(S(=O)(=O)Nc2ccon2)cn1)c1cc(Cl)c(-c2cc(Cl)cnc2OC)cc1OC` [Example 1-41, 6-((5-chloro-4-(5-chloro-2-methoxy-3-pyridinyl)-2-methoxyphenyl)(methylcarbamoyl)amino)-N-3-isoxazolyl-3-pyridinesulfonamide], the IC50 came out at 0.166 µM.

For `CNC(=O)N(c1ccc(S(=O)(=O)Nc2ccon2)cn1)c1cc(F)c(-c2ccc(Cl)c(OC)c2)cc1OC` [Example 1-35, 6-((4′-chloro-2-fluoro-3′,5-dimethoxy-4-biphenylyl)(methylcarbamoyl)amino)-N-3-isoxazolyl-3-pyridinesulfonamide], the concentration for half-maximal inhibition (IC50) stood at 0.185 µM.

For the compound `CNC(=O)N(c1ccc(S(=O)(=O)Nc2ccon2)cn1)c1cc(Cl)c(-c2cc(OC)c(F)c(OC)c2)cc1OC` [Example 1-66, 6-((2-chloro-4′-fluoro-3′,5,5′-trimethoxy-4-biphenylyl)(methylcarbamoyl)amino)-N-3-isoxazolyl-3-pyridinesulfonamide], half-maximal inhibition (IC50) was put at 0.059 µM.

The compound `CNC(=O)N(c1ccc(S(=O)(=O)Nc2ccon2)cn1)c1cc(Cl)c(-c2ccc(C)c(F)c2)cc1OC` [Example 1-62, 6-((2-chloro-3′-fluoro-5-methoxy-4′-methyl-4-biphenylyl)(methylcarbamoyl)amino)-N-3-isoxazolyl-3-pyridinesulfonamide] returned an IC50 of 0.064 µM.

Compound `CNC(=O)N(c1ccc(S(=O)(=O)Nc2ccon2)cn1)c1cc(F)c(-c2cc(F)cc(Cl)c2)cc1OC` [Example 1-5, 6-((3′-chloro-2,5′-difluoro-5-methoxy-4-biphenylyl)(methylcarbamoyl)amino)-N-3-isoxazolyl-3-pyridinesulfonamide] registered an IC50 of 0.092 µM.

As to `CNC(=O)N(c1ccc(S(=O)(=O)Nc2ccon2)cn1)c1cc(-c2ccc(C)c(Cl)c2)ccc1OC` [Example 4-5, 6-((3′-chloro-4-methoxy-4′-methyl-3-biphenylyl)(methylcarbamoyl)amino)-N-3-isoxazolyl-3-pyridinesulfonamide], the concentration for half-maximal inhibition (IC50) amounted to 0.442 µM.

`CNC(=O)N(c1ccc(S(=O)(=O)Nc2ccon2)cn1)c1cc(F)c(-c2ccc(Cl)c(C)c2)cc1OC` [Example 1-1, 6-((4′-chloro-2-fluoro-5-methoxy-3′-methyl-4-biphenylyl)(methylcarbamoyl)amino)-N-3-isoxazolyl-3-pyridinesulfonamide] had an IC50 of 0.057 µM.

`CNC(=O)N(c1ccc(S(=O)(=O)Nc2ccon2)cn1)c1cc(Cl)c(-c2cc(OC(F)(F)F)ccc2OC)cc1OC` [Example 1-56, 6-((2-chloro-2′,5-dimethoxy-5′-(trifluoromethoxy)-4-biphenylyl)(methylcarbamoyl)amino)-N-3-isoxazolyl-3-pyridinesulfonamide] came in with a concentration for half-maximal inhibition (IC50) of 0.019 µM.

`CNC(=O)N(c1ccc(S(=O)(=O)Nc2cccnn2)cn1)c1cc(F)c(-c2ccc(Cl)c(C)c2)cc1OC` [Example 1-2, 6-((4′-chloro-2-fluoro-5-methoxy-3′-methyl-4-biphenylyl)(methylcarbamoyl)amino)-N-3-pyridazinyl-3-pyridinesulfonamide] returned an IC50 of 0.106 µM.

For the compound `COc1cc(-c2cc(Cl)cc(C#N)c2)c(Cl)cc1N(C(N)=O)c1ccc(S(=O)(=O)Nc2ccon2)cn1` [Example 5-3, 6-(carbamoyl(2,3′-dichloro-5′-cyano-5-methoxy-4-biphenylyl)amino)-N-3-isoxazolyl-3-pyridinesulfonamide], the IC50 was found to be 0.031 µM.

`CNC(=O)N(c1ccc(S(=O)(=O)Nc2ccon2)cn1)c1ccc(-c2ccc(F)c(C)c2)cc1OC` [Example 1-71, 6-((4′-fluoro-3-methoxy-3′-methyl-4-biphenylyl)(methylcarbamoyl)amino)-N-3-isoxazolyl-3-pyridinesulfonamide] showed an IC50 of 0.398 µM.

Consider `CNC(=O)N(c1ccc(S(=O)(=O)Nc2ncccn2)cn1)c1cc(F)c(-c2cccc(C(F)(F)F)c2)cc1OC` [Example 1-81, 6-((2-fluoro-5-methoxy-3′-(trifluoromethyl)-4-biphenylyl)(methylcarbamoyl)amino)-N-2-pyrimidinyl-3-pyridinesulfonamide], for which half-maximal inhibition (IC50) was put at 0.143 µM.

The compound `CNC(=O)N(c1ccc(S(=O)(=O)Nc2ccon2)cn1)c1cc(F)c(-c2ccc(F)c(F)c2)cc1OC` [Example 1-22, N-3-isoxazolyl-6-((methylcarbamoyl)(2,3′,4′-trifluoro-5-methoxy-4-biphenylyl)amino)-3-pyridinesulfonamide] showed a 50% inhibitory concentration (IC50) of 0.199 µM.

As for `CNC(=O)N(c1ccc(S(=O)(=O)Nc2ccon2)cn1)c1cc(Cl)c(C2CC2)cc1OC` [Example 1-59, 6-((5-chloro-4-cyclopropyl-2-methoxyphenyl)(methylcarbamoyl)amino)-N-3-isoxazolyl-3-pyridinesulfonamide], it took 3.02 µM to reach half-maximal inhibition (IC50).

Regarding `CNC(=O)N(c1ccc(S(=O)(=O)Nc2ccon2)cc1)c1ccc(-c2ccc(Cl)c(C)c2)cc1OC` [Example 9, 4-(1-(4′-chloro-3-methoxy-3′-methyl-[1,1′-biphenyl]-4-yl)-3methylureido)-N-(isoxazol-3-yl)benzenesulfonamide], the IC50 came to 0.4 µM.

With `CNC(=O)N(c1ccc(S(=O)(=O)Nc2ncccn2)cn1)c1ccc(-c2ccc(F)c(C(F)(F)F)c2)cc1OC` [Example 2-8, 6-((4′-fluoro-3-methoxy-3′-(trifluoromethyl)-4-biphenylyl)(methylcarbamoyl)amino)-N-2-pyrimidinyl-3-pyridinesulfonamide], the IC50 is 0.017 µM.

Consider `CNC(=O)N(c1ccc(S(=O)(=O)Nc2ccon2)cn1)c1ccc(-c2ccc(Cl)c(C)c2)cc1OC` [Example 1-73, 6-((4′-chloro-3-methoxy-3′-methyl-4-biphenylyl)(methylcarbamoyl)amino)-N-3-isoxazolyl-3-pyridinesulfonamide], for which it took 0.065 µM to reach half-maximal inhibition (IC50).

As to `CNC(=O)N(c1ccc(S(=O)(=O)Nc2ccon2)cn1)c1cc(F)c(-c2ccc(F)c(OC(F)(F)F)c2)cc1OC` [Example 1-27, 6-((2,4′-difluoro-5-methoxy-3′-(trifluoromethoxy)-4-biphenylyl)(methylcarbamoyl)amino)-N-3-isoxazolyl-3-pyridinesulfonamide], 0.02 µM corresponded to half-maximal inhibition (IC50).

Take `CNC(=O)N(c1ccc(S(=O)(=O)Nc2ccon2)cn1)c1cc(Cl)c(C#CC2CCCC2)cc1OC` [Example 7, 6-((5-chloro-4-(cyclopentylethynyl)-2-methoxyphenyl)(methylcarbamoyl)amino)-N-3-isoxazolyl-3-pyridinesulfonamide]: the half-maximal inhibitory concentration (IC50) worked out at 0.068 µM.

`CNC(=O)N(c1ccc(S(=O)(=O)Nc2cccnn2)cn1)c1cc(Cl)c(-c2cc(F)c(F)c(F)c2)cc1OC` [Example 2-5, 6-((2-chloro-3′,4′,5′-trifluoro-5-methoxy-4-biphenylyl)(methylcarbamoyl)amino)-N-3-pyridazinyl-3-pyridinesulfonamide] came in with an IC50 of 0.075 µM.

Consider `CONC(=O)N(c1ccc(S(=O)(=O)Nc2ccon2)cn1)c1cc(F)c(-c2cccc(C(F)(F)F)c2)cc1OC` [Example 1-90, 6-((2-fluoro-5-methoxy-3′-(trifluoromethyl)-4-biphenylyl)(methoxycarbamoyl)amino)-N-3-isoxazolyl-3-pyridinesulfonamide], for which the half-maximal inhibitory concentration (IC50) stood at 0.069 µM.

In turn, `CNC(=O)N(c1ccc(S(=O)(=O)Nc2ccon2)cn1)c1cc(Cl)c(-c2cc(C(F)(F)F)cnc2OC)cc1OC` [Example 1-40, 6-((5-chloro-2-methoxy-4-(2-methoxy-5-(trifluoromethyl)-3-pyridinyl)phenyl)(methylcarbamoyl)amino)-N-3-isoxazolyl-3-pyridinesulfonamide] yielded an IC50 of 0.032 µM.

`CNC(=O)N(c1ccc(S(=O)(=O)Nc2cccc(F)n2)cn1)c1cc(Cl)c(-c2ccc(F)c(C(F)(F)F)c2)cc1OC` [Example 3-9, 6-((2-chloro-4′-fluoro-5-methoxy-3′-(trifluoromethyl)-4-biphenylyl)(methylcarbamoyl)amino)-N-(6-fluoro-2-pyridinyl)-3-pyridinesulfonamide] returned an IC50 of 0.053 µM. This IC50 is about 1.7-fold higher than that of the compound before.

Compound `CNC(=O)N(c1ccc(S(=O)(=O)Nc2ccon2)cn1)c1cc(Cl)c(-c2cccc(OC(C)C)c2)cc1OC` [Example 1-48, 6-((2-chloro-5-methoxy-3′-(1-methylethoxy)-4-biphenylyl)(methylcarbamoyl)amino)-N-3-isoxazolyl-3-pyridinesulfonamide] had a half-maximal inhibitory concentration (IC50) of 0.071 µM.

Take `CNC(=O)N(c1ccc(S(=O)(=O)Nc2ncccn2)cn1)c1cc(Cl)c(-c2ccc(Cl)c(OC)c2)cc1OC` [Example 1-77, 6-((2,4′-dichloro-3′,5-dimethoxy-4-biphenylyl)(methylcarbamoyl)amino)-N-2-pyrimidinyl-3-pyridinesulfonamide]: the IC50 is 0.07 µM.
